Measurements taken from patent publication US8750968B2, “Device and procedure for the diagnosis or diagnostic preparation and/or therapy monitoring of inflammatory diseases such as rheumatoid arthritis” (MIVENION GmbH, priority 2007, dated 2014).

Assays:
[1] = test system: activated rheumatoid arthritis; experiment: clinical examination and patient report after four weeks of intensive therapy; format: in vivo, human; details: four weeks after start of therapy
Method: Patient, weight 59 kg. Patient with an acute progression of rheumatoid arthritis and damage to the joints DIP-R3, PIP-R3 and PIP-R4. The patient was examined twice: the current examination as well as four weeks before the current examination. An intensive therapy using Infliximab® was administered upon the diagnosis of an activated rheumatoid arthritis four weeks before the current examination.

[2] = test system: activated rheumatoid arthritis; experiment: activity value AKT from ICG fluorescence imaging of both hands, two examinations four weeks apart; format: in vivo, human; details: for activity value AKT: current examination vs four weeks before, values less than 1 indicate a decrease in disease activity
Method: A correction factor (CF) is determined after the calculation of the average AUCRef value above the fingernails. The quotient of the mean AUCRef value and the correction factor (CF) should result in a reference factor (RF) with a value of 100. CF=mean AUCRef/100(RF) 100(RF)=mean AUCRef/CF
Each of the obtained 28 AUC values of the interphalangeal articulations of the hands is processed by mathematical correlation. By dividing the AUC values by CF, corrected AUC values (AUCcorr) are obtained for the ROI above the respective interphalangeal articulations of the hands. AUCcorr=AUC/CF
The inventive process is further characterized by the layout of a method that allows the comparison of different examinations on the same patient. This method should compensate the different levels of the fluorescence signal intensity that result from the variable pharmacokinetics of ICG. The correction factor (CF) is calculated for each measurement leading to the formation of the signal intensity curve. Any number or any type of examinations can be assigned to one another by means of the CF of the ROI above the fingernails. Due to the division of the AUCcorr values from an arbitrary examination by CF, they can be directly compared with other AUCcorr values from previous examinations. The equation for calculating an arbitrary examination n is as follows: AUCcorr(n)=AUC(n)/CF(n)
The value AKT for the time-dependent disease activity results from the possibility of direct comparability of the corrected AUC values. The formula for calculating the activity value AKT of any two examinations over time is as follows: AKT=AUCcorr(n)/AUCcorr(n-1)
Values greater than 1 point out an increasing disease activity, respectively a deterioration of the result, whereas values less than 1 indicate an enhancement of the result, respectively a decrease in disease activity.
Methods and implementation: Intravenous injection of indocyanine green (ICG pulsion) at a dose of 0.2 mg/kg. Bolus injection for about 5 s, the measurement time 0 corresponds to the termination of the Injection. Measuring device: simultaneous measurement of both the hands, illumination surface about 20 cm×30 cm, LEDs, excitation wavelength of 775 nm, detection >800 nm (2 long-pass interference filters, each of whose λ50%=800 nm), iCCD camera with standard lens (water/Peltier-type cooling).
Data collection (image capture) for both the hands up to 10 minutes after the injection with a cycle time of 3 s (20 frames/min). […]
The activity values AKT are calculated by dividing each of the corrected results of the […] examination by each of the corresponding corrected results of the second examination respectively.

## Infliximab [Infliximab®]
[1]; patient report
  subjective perception of the disease (morning stiffness, pain sensations): improvement in the subjective perception of the disease
[1]; patient
  clinical examination result (inflammation of the diseased joints): essentially unchanged result with only a low-level decline in the inflammation of the diseased joints
[2]; joint DIP-R3
  activity value AKT: 0.71
[2]; joint PIP-R3
  activity value AKT: 0.65
[2]; joint printed PIP-84
  activity value AKT: 0.911
[2]; patient, after four weeks of therapy
  effectiveness of the ongoing intensified therapy: could be quantitatively demonstrated just after four weeks
